Test [1] concerns salicylate responsive promoter sequence of the PR1 (pathogenesis-related protein I) gene (AT2G14610). The test is described as follows: Induction of defense gene expression in Arabidopsis thaliana (PR1 promoter-GFP reporter plants). The class given is in vivo. Conditions: 72 h, 3rd day after spraying, mock treated leaves set as 1.00, read-out: relative fluorescence value. In short, it runs like this: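 Transgenic A. thaliana carrying GFP under the salicylate-responsive PR1 promoter, grown five days, then sprayed with compounds. Whole-plant fluorescence imaged and quantified on day 3 post-spray, expressed relative to mock-treated leaf background set at 1.00.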

The test system of test [2] is Pseudomonas syringae pv. tomato. The test is described as follows: Pseudomonas syringae pv. tomato in vitro cell test. Conditions: 20 ppm of active ingredient, 24 h of incubation, read-out: efficacy (inhibition of bacteria growth; no direct activity). The format is cell-based. The essentials:
(§1)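 Bacteria from liquid pre-culture diluted to set OD in LB broth and exposed to compounds dissolved in DMSO (final ≤1%). After 24 h, growth read by absorbance; inhibition derived relative to compound-free control wells.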

For test [3], the system named is Colletotrichum lindemuthianum. The test is described as follows: Colletotrichum lindemuthianum in vitro cell test. The class given is cell-based. Conditions: 144 h, 6 days incubation, read-out: efficacy (inhibition of fungal growth; no direct activity); for inhibition at 5 ppm: 5 ppm of active ingredient; for inhibition at 20 ppm: 20 ppm of active ingredient. In short, it runs like this:
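C. lindemuthianum spore suspension grown in liquid glucose/peptone/yeast-extract medium with compound (final DMSO ≤1%). After 6 days, mycelial growth measured by absorbance; inhibition calculated versus fungicide-free control wells.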

Test [4] relates to Pseudomonas syringae pv. tomato. The test is described as follows: In vivo preventive test on Pseudomonas syringae pv. tomato (bacterial speck on tomato). Conditions: sprayed 72 hours before inoculation, evaluated 5 or 6 days after inoculation, read-out: efficacy; for pest or weed control at 500 ppm: 500 ppm of active ingredient; for pest or weed control at 31 ppm: 31 ppm of active ingredient; for pest or weed control at 125 ppm: 125 ppm of active ingredient. How it is done:
The tested active ingredients were prepared by homogenization in a mixture of acetone/Dimethyl sulfoxide/Tween®, and then diluted with water to obtain the desired active material concentration.
The young plants of tomato were treated by spraying the active ingredient prepared as described above. Control plants were treated only with an aqueous solution of acetone/Dimethyl sulfoxide/Tween®.
After 72 hours, the plants were contaminated by spraying the leaves with an aqueous bacteria suspension of Pseudomonas syringae pv. tomato. The contaminated tomato plants were incubated for 4 days in saturated atmosphere at 22° C. day/20° C. night−70% HR and then for 1 or 2 days at 22° C. day/20° C. night at 70-80% relative humidity.
The test was evaluated 5 or 6 days after the inoculation. 0% means an efficacy which corresponds to that of the control plants while an efficacy of 100% means that no disease was observed.

The subject of test [5] is Alternaria alternata. The test is described as follows: Alternaria alternata in vitro cell test. The class given is cell-based. Conditions: 120 h, 5 days incubation, read-out: efficacy (inhibition of fungal growth; no direct activity); for inhibition at 5 ppm: 5 ppm of active ingredient; for inhibition at 20 ppm: 20 ppm of active ingredient. The essentials: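 A. alternata spores in glucose/peptone/yeast-extract liquid medium were exposed to DMSO-solubilized compound (final DMSO ≤1%). After 5 days incubation, mycelium growth read spectrometrically; inhibition derived from absorbance relative to fungicide-free control wells.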

Test [6] has as its system Uromyces appendiculatus. The test is described as follows: In vivo preventive test on Uromyces appendiculatus (bean rust). Conditions: 240 h, sprayed 72 hours before inoculation, evaluated 10 days after inoculation, read-out: efficacy; for pest or weed control at 31 ppm: 31 ppm of active ingredient; for pest or weed control at 125 ppm: 125 ppm of active ingredient; for pest or weed control at 500 ppm: 500 ppm of active ingredient. The essentials: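 Young bean plants sprayed with compound in acetone/DMSO/Tween diluted in water, then inoculated 72 h later with spore suspension. Incubated 24 h at 20° C., 100% RH, then 9 days at 20° C., 70-80% RH. Efficacy scored 10 days post-inoculation, 0% = untreated-control level, 100% = no disease.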

Test [7] has as its system Xanthomonas campestris pv. campestris. Put plainly: Xanthomonas campestris pv. campestris in vitro cell test. The format is cell-based. Conditions: 24 h of incubation, read-out: efficacy (inhibition of bacteria growth; no direct activity); for inhibition at 5 ppm: 5 ppm of active ingredient; for inhibition at 20 ppm: 20 ppm of active ingredient. In short, it runs like this: as §1

Test [8] concerns Peronospora parasitica. The test is described as follows: In vivo preventive test on Peronospora parasitica (Crucifer downy mildew) on cabbage. Conditions: Hyaloperonospora parasitica, 120 h, sprayed 72 hours before inoculation, evaluated 5 days after inoculation, read-out: efficacy; for pest or weed control at 31 ppm: 31 ppm of active ingredient; for pest or weed control at 125 ppm: 125 ppm of active ingredient; for pest or weed control at 500 ppm: 500 ppm of active ingredient. The essentials:
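Young cabbage plants were sprayed with compound in aqueous acetone/DMSO/Tween, then inoculated 72 h later with P. parasitica spores and held 5 days at 20 °C, 100% RH. Efficacy scored 5 days post-inoculation: 0% equals solvent-treated controls, 100% means no disease.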

Data on eight compounds can be found in patent US12509437B2, “Substituted thiophene carboxamides and derivatives thereof as microbicides” (Bayer Aktiengesellschaft, priority 2019, dated 2025).

Where only a bound is given, the exact number is not on record here.

As to `COC(=O)C(NC(=O)c1sc(Br)c(Br)c1C)C1CC1` (centres unmarked) [I.032], the fold induction at 75 ppm in test [1] was > 2. In test [1], the fold induction at 300 ppm is > 2. Besides, the inhibition at 20 ppm in test [2] and in test [5] was ≤ 30% each time. Besides, the inhibition at 5 ppm in test [3], in test [5] and in test [7] was ≤ 30% each time. The pest or weed control at 500 ppm in test [4] was in the range of 70 to 79%; in test [6], 90 to 100%; in test [8], 90 to 100%. The pest or weed control at 31 ppm in test [6] was in the range of 90 to 100%; in test [8], 80 to 89%. Further, the pest or weed control at 125 ppm in test [6] and in test [8] was 90 to 100% throughout.

Regarding `CCOC(=O)C1(NC(=O)c2sc(Cl)c(Cl)c2C)CCC1` [I.047], the fold induction at 300 ppm in test [1] was > 2. Moreover, the inhibition at 20 ppm in test [2], in test [5] and in test [7] was ≤ 30% each time. Also, the inhibition at 5 ppm in test [3], in test [5] and in test [7] was ≤ 30% throughout. The pest or weed control at 31 ppm lay in the range of 70 to 79% in test [4], 80 to 89% in test [6] and 90 to 100% in test [8]. The pest or weed control at 125 ppm in test [4], in test [6] and in test [8] was 90 to 100% each time. Also, the pest or weed control at 500 ppm in test [6] and in test [8] was 90 to 100% in each case.

For the compound `Cc1c(C(=S)NC2(C(=O)O)CC2)sc(Cl)c1Cl` [I.060], the fold induction at 75 ppm in test [1] is > 2. In test [1], the fold induction at 300 ppm was > 2. The inhibition at 20 ppm in test [2], in test [3], in test [5] and in test [7] was ≤ 30% each time. Besides, the inhibition at 5 ppm in test [3], in test [5] and in test [7] was ≤ 30% throughout. In addition, the pest or weed control at 500 ppm was in the range of 70 to 79% in test [4], 90 to 100% in test [6] and 90 to 100% in test [8]. The pest or weed control at 31 ppm in test [6] and in test [8] was 90 to 100% each time. The pest or weed control at 125 ppm in test [6] and in test [8] was 90 to 100% each time.

Regarding `CCOC(=O)C(C#N)NC(=O)c1sc(Br)c(Br)c1C` (centres unmarked) [I.077], the fold induction at 75 ppm in test [1] was > 2. Also, the fold induction at 300 ppm in test [1] was > 2. Also, the inhibition at 20 ppm in test [2], in test [3], in test [5] and in test [7] was ≤ 30% each time. Further, the inhibition at 5 ppm in test [3], in test [5] and in test [7] was ≤ 30% throughout. For the same compound, the values for the pest or weed control at 500 ppm in test [4], in test [6] and in test [8] were 80 to 89%, 90 to 100% and 90 to 100%, respectively. Also, the pest or weed control at 31 ppm was in the range of 70 to 79% in test [6] and 80 to 89% in test [8]. The pest or weed control at 125 ppm in test [6] and in test [8] was 90 to 100% in each case.

With `Cc1c(C(=O)NC(C(=O)O)C2CC2)sc(Br)c1Br` (centres unmarked) [I.080, cyclopropyl{[(4,5-dibromo-3-methyl-2-thienyl)carbonyl]amino}acetic acid], the fold induction at 75 ppm in test [1] is > 2. Besides, the fold induction at 300 ppm in test [1] is > 2. Also, the inhibition at 20 ppm in test [2], in test [3], in test [5] and in test [7] was ≤ 30% in each case. In addition, the inhibition at 5 ppm in test [3], in test [5] and in test [7] was ≤ 30% each time. Besides, the pest or weed control at 500 ppm in test [4] lay within 70 to 79%; in test [6] it was 90 to 100%; in test [8], 90 to 100%. Moreover, the pest or weed control at 125 ppm in test [8] was 90 to 100%.

`COC(=O)C(NC(=O)c1sc(Cl)c(Cl)c1C)C1CC1` (centres unmarked) [I.081, methyl cyclopropyl{[(4,5-dichloro-3-methyl-2-thienyl)carbonyl]amino}acetate]: in test [1], the fold induction at 75 ppm is > 2. Moreover, the fold induction at 300 ppm in test [1] is > 2. Also, the inhibition at 20 ppm in test [2], in test [3], in test [5] and in test [7] was ≤ 30% throughout. Moreover, the inhibition at 5 ppm in test [3], in test [5] and in test [7] was ≤ 30% throughout. Besides, the pest or weed control at 125 ppm in test [4] was in the range of 70 to 79%; in test [6], 90 to 100%; in test [8] it was 90 to 100%. Moreover, the pest or weed control at 500 ppm in test [6] and in test [8] was 90 to 100% each time. Further, the pest or weed control at 31 ppm in test [8] lay in the range of 80 to 89%.

As to `Cc1c(C(=O)NC(C(=O)O)C2CC2)sc(Cl)c1Cl` (centres unmarked) [I.095], the fold induction at 75 ppm in test [1] was > 2. Besides, the fold induction at 300 ppm in test [1] was > 2. For the same compound, the inhibition at 20 ppm in test [2], in test [3], in test [5] and in test [7] was ≤ 30% in each case. Moreover, the inhibition at 5 ppm in test [3], in test [5] and in test [7] was ≤ 30% in each case. For the same compound, the pest or weed control at 125 ppm fell in the range of 70 to 79% in test [4], 90 to 100% in test [6] and 90 to 100% in test [8]. Further, the figures for the pest or weed control at 500 ppm in test [4], in test [6] and in test [8] were 80 to 89%, 90 to 100% and 90 to 100%, respectively. Moreover, the pest or weed control at 31 ppm in test [6] and in test [8] was 80 to 89% in each case.

For `COC(=O)CC[C@H](NC(=O)c1sc(Cl)c(Cl)c1C)C(=O)OC` [I.122], the fold induction at 75 ppm in test [1] was > 2. The fold induction at 300 ppm in test [1] was > 2. Also, the inhibition at 20 ppm in test [2], in test [3], in test [5] and in test [7] was ≤ 30% in each case. Also, the inhibition at 5 ppm in test [3], in test [5] and in test [7] was ≤ 30% in each case. The figures for the pest or weed control at 31 ppm in test [4] and in test [8] were 70 to 79% and 90 to 100%, respectively. The pest or weed control at 125 ppm fell in the range of 80 to 89% in test [4] and 90 to 100% in test [8]. Moreover, the pest or weed control at 500 ppm was in the range of 80 to 89% in test [4], 90 to 100% in test [6] and 90 to 100% in test [8].

For orientation: inhibition means the drop in the measured response relative to a control, in per cent.
